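Five concentrations, 48 hours, 96-well plates. TGI is the concentration that stops growth completely.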
How the values were obtained:
Experiment in all cases: NCI anticancer screen, dose series, 48 h
SF-268 CNS = tested on: SF-268 CNS
UO-31 renal = tested on: UO-31 renal
786-0 renal = tested on: 786-0 renal
MCF7 breast = tested on: MCF7 breast
PC-3 prostate = tested on: PC-3 prostate
SK-MEL-5 melanoma = tested on: SK-MEL-5 melanoma
SN12C renal = tested on: SN12C renal
A549 NSCLC = tested on: A549 NSCLC
DMS 114 small cell lung = tested on: DMS 114 small cell lung
OVCAR-3 ovarian = tested on: OVCAR-3 ovarian
CAKI-1 renal = tested on: CAKI-1 renal
HCC-2998 colon = tested on: HCC-2998 colon
BT-549 breast = tested on: BT-549 breast
UACC-257 melanoma = tested on: UACC-257 melanoma
HT29 colon = tested on: HT29 colon
OVCAR-4 ovarian = tested on: OVCAR-4 ovarian
COLO 205 colon = tested on: COLO 205 colon
RXF 393 renal = tested on: RXF 393 renal
TK-10 renal = tested on: TK-10 renal
SNB-75 CNS = tested on: SNB-75 CNS
RPMI-8226 leukemia = tested on: RPMI-8226 leukemia
CCRF-CEM leukemia = tested on: CCRF-CEM leukemia
T-47D breast = tested on: T-47D breast
HS 578T breast = tested on: HS 578T breast
U251 CNS = tested on: U251 CNS
SNB-19 CNS = tested on: SNB-19 CNS
XF 498 CNS = tested on: XF 498 CNS
UACC-62 melanoma = tested on: UACC-62 melanoma
DLD-1 colon = tested on: DLD-1 colon
SK-MEL-28 melanoma = tested on: SK-MEL-28 melanoma
DMS 273 small cell lung = tested on: DMS 273 small cell lung
EKVX NSCLC = tested on: EKVX NSCLC
SR leukemia = tested on: SR leukemia
HOP-18 NSCLC = tested on: HOP-18 NSCLC
HCT-116 colon = tested on: HCT-116 colon
M14 melanoma = tested on: M14 melanoma
M19-MEL melanoma = tested on: M19-MEL melanoma
SW-620 colon = tested on: SW-620 colon
MDA-MB-231 breast = tested on: MDA-MB-231 breast
SNB-78 CNS = tested on: SNB-78 CNS
NCI-H522 lung = tested on: NCI-H522 lung
MDA-N = tested on: MDA-N
NCI-H226 lung = tested on: NCI-H226 lung
KM12 colon = tested on: KM12 colon
IGROV1 ovarian = tested on: IGROV1 ovarian
OVCAR-5 ovarian = tested on: OVCAR-5 ovarian
ACHN renal = tested on: ACHN renal
RXF-631 renal = tested on: RXF-631 renal
NCI-H23 lung = tested on: NCI-H23 lung
A498 renal = tested on: A498 renal
MALME-3M melanoma = tested on: MALME-3M melanoma
LOX IMVI melanoma = tested on: LOX IMVI melanoma
K-562 leukemia = tested on: K-562 leukemia
SK-OV-3 ovarian = tested on: SK-OV-3 ovarian
HOP-92 NSCLC = tested on: HOP-92 NSCLC
HL-60(TB) leukemia = tested on: HL-60(TB) leukemia
SK-MEL-2 melanoma = tested on: SK-MEL-2 melanoma
HCT-15 colon = tested on: HCT-15 colon
SF-539 CNS = tested on: SF-539 CNS
NCI-H460 lung = tested on: NCI-H460 lung
MOLT-4 leukemia = tested on: MOLT-4 leukemia
KM20L2 colon = tested on: KM20L2 colon
MDA-MB-435 = tested on: MDA-MB-435
HOP-62 NSCLC = tested on: HOP-62 NSCLC
OVCAR-8 ovarian = tested on: OVCAR-8 ovarian
DU-145 prostate = tested on: DU-145 prostate
LXFL 529 NSCLC = tested on: LXFL 529 NSCLC
SF-295 CNS = tested on: SF-295 CNS

## CCc1cccc(CC)c1NC(=O)C(C#N)C1=C(Cl)C(=O)c2ccccc2C1=O (configuration not stated)
SF-268 CNS
  TGI: 36 µM
UO-31 renal
  TGI: 24.3 µM
786-0 renal
  TGI: 31 µM
MCF7 breast
  TGI: 34.5 µM
PC-3 prostate
  TGI: 25.9 µM
SK-MEL-5 melanoma
  TGI: 28.2 µM
SN12C renal
  TGI: 31.3 µM
A549 NSCLC
  TGI: 40.9 µM
DMS 114 small cell lung
  TGI: 65.4 µM
OVCAR-3 ovarian
  TGI: 36.9 µM
CAKI-1 renal
  TGI: 24.7 µM
HCC-2998 colon
  TGI: 31.2 µM
BT-549 breast
  TGI: 24.8 µM
UACC-257 melanoma
  TGI: 32.2 µM
HT29 colon
  TGI: 39.7 µM
OVCAR-4 ovarian
  TGI: 31.6 µM
COLO 205 colon
  TGI: 49.1 µM
RXF 393 renal
  TGI: 29.8 µM
TK-10 renal
  TGI: 35.9 µM
SNB-75 CNS
  TGI: 17.4 µM
RPMI-8226 leukemia
  TGI: 23.4 µM
CCRF-CEM leukemia
  TGI: 15.6 µM
T-47D breast
  TGI: 18.1 µM
HS 578T breast
  TGI: 9.32 µM
U251 CNS
  TGI: 33.7 µM
SNB-19 CNS
  TGI: 44.4 µM
XF 498 CNS
  TGI: 29.4 µM
UACC-62 melanoma
  TGI: 31.7 µM
DLD-1 colon
  TGI: 45.2 µM
SK-MEL-28 melanoma
  TGI: 41 µM
DMS 273 small cell lung
  TGI: 45.3 µM
EKVX NSCLC
  TGI: 36 µM
SR leukemia
  TGI: > 28.9 µM
HOP-18 NSCLC
  TGI: 28.9 µM
HCT-116 colon
  TGI: 34 µM
M14 melanoma
  TGI: 35.1 µM
M19-MEL melanoma
  TGI: 47.2 µM
SW-620 colon
  TGI: 31.2 µM
MDA-MB-231 breast
  TGI: 21.6 µM
SNB-78 CNS
  TGI: 40.8 µM
NCI-H522 lung
  TGI: 23 µM
MDA-N
  TGI: 30.3 µM
NCI-H226 lung
  TGI: 29.8 µM
KM12 colon
  TGI: 35.5 µM
IGROV1 ovarian
  TGI: 32 µM
OVCAR-5 ovarian
  TGI: 34.5 µM
ACHN renal
  TGI: 30.5 µM
RXF-631 renal
  TGI: > 56.8 µM
NCI-H23 lung
  TGI: 24.3 µM
A498 renal
  TGI: 36.5 µM
MALME-3M melanoma
  TGI: 21 µM
LOX IMVI melanoma
  TGI: 45.1 µM
K-562 leukemia
  TGI: 14.1 µM
SK-OV-3 ovarian
  TGI: 42.4 µM
HOP-92 NSCLC
  TGI: 8.89 µM
HL-60(TB) leukemia
  TGI: 5.28 µM
SK-MEL-2 melanoma
  TGI: 34.7 µM
HCT-15 colon
  TGI: 42.9 µM
SF-539 CNS
  TGI: 25.6 µM
NCI-H460 lung
  TGI: 52 µM
MOLT-4 leukemia
  TGI: 20.3 µM
KM20L2 colon
  TGI: 43.8 µM
MDA-MB-435
  TGI: 27.9 µM
HOP-62 NSCLC
  TGI: 21.4 µM
OVCAR-8 ovarian
  TGI: 57.1 µM
DU-145 prostate
  TGI: 30.5 µM
LXFL 529 NSCLC
  TGI: 30.1 µM
SF-295 CNS
  TGI: 29.9 µM

## NCCc1ccc2oc3cc(=O)c4ccccc4c-3nc2c1
SF-268 CNS
  TGI: 15.4 µM
UO-31 renal
  TGI: 9.37 µM
786-0 renal
  TGI: 4.89 µM
SK-MEL-5 melanoma
  TGI: 2.13 µM
SN12C renal
  TGI: 7.22 µM
A549 NSCLC
  TGI: 2.18 µM
DMS 114 small cell lung
  TGI: 2.85 µM
OVCAR-3 ovarian
  TGI: 8.12 µM
CAKI-1 renal
  TGI: 24 µM
HCC-2998 colon
  TGI: 6.78 µM
UACC-257 melanoma
  TGI: 7.4 µM
HT29 colon
  TGI: 4.35 µM
OVCAR-4 ovarian
  TGI: 15.8 µM
COLO 205 colon
  TGI: 1.81 µM
RXF 393 renal
  TGI: 9.94 µM
TK-10 renal
  TGI: 27.3 µM
SNB-75 CNS
  TGI: 6.06 µM
RPMI-8226 leukemia
  TGI: 23.2 µM
CCRF-CEM leukemia
  TGI: 4.49 µM
U251 CNS
  TGI: 10.6 µM
SNB-19 CNS
  TGI: 11 µM
XF 498 CNS
  TGI: 7.01 µM
UACC-62 melanoma
  TGI: 8.58 µM
DLD-1 colon
  TGI: 9.34 µM
SK-MEL-28 melanoma
  TGI: 10.7 µM
DMS 273 small cell lung
  TGI: 3.11 µM
EKVX NSCLC
  TGI: 25.1 µM
SR leukemia
  TGI: 4.67 µM
HOP-18 NSCLC
  TGI: 4.67 µM
HCT-116 colon
  TGI: 2.87 µM
M14 melanoma
  TGI: 4.18 µM
M19-MEL melanoma
  TGI: 0.894 µM
SW-620 colon
  TGI: 5.95 µM
SNB-78 CNS
  TGI: 23.3 µM
NCI-H522 lung
  TGI: 7.66 µM
NCI-H226 lung
  TGI: 17.5 µM
KM12 colon
  TGI: 8.35 µM
IGROV1 ovarian
  TGI: 15.5 µM
OVCAR-5 ovarian
  TGI: 15.4 µM
ACHN renal
  TGI: 12 µM
RXF-631 renal
  TGI: 8.88 µM
NCI-H23 lung
  TGI: 2.39 µM
A498 renal
  TGI: 26.3 µM
MALME-3M melanoma
  TGI: 4.37 µM
LOX IMVI melanoma
  TGI: 4.42 µM
K-562 leukemia
  TGI: 6.95 µM
SK-OV-3 ovarian
  TGI: 24.4 µM
HOP-92 NSCLC
  TGI: 21.6 µM
HL-60(TB) leukemia
  TGI: 3.42 µM
SK-MEL-2 melanoma
  TGI: 5.16 µM
HCT-15 colon
  TGI: 5.01 µM
SF-539 CNS
  TGI: 6.35 µM
NCI-H460 lung
  TGI: 2.76 µM
MOLT-4 leukemia
  TGI: 5.52 µM
KM20L2 colon
  TGI: 9.12 µM
HOP-62 NSCLC
  TGI: 10.3 µM
OVCAR-8 ovarian
  TGI: 10.6 µM
LXFL 529 NSCLC
  TGI: 13.4 µM
SF-295 CNS
  TGI: 9.48 µM

Reference: PubChem BioAssay (NCI)
